Measured values reported in PMC5218480 (PLoS ONE, 2017).

Tested on: MV-4-11 cells
Assay: Gene expression microarray analysis (Affymetrix PrimeView) and GSEA
Format: cell-based, human
Set-up: RFU PODN (11730768_x_at) / Fold change /veh PODN (11730768_x_at) / RFU LINC00158 (11744669_a_at) / Fold change /veh LINC00158 (11744669_a_at) / RFU DUSP10 (11751237_a_at) / Fold change /veh DUSP10 (11751237_a_at) / RFU ID3 (11757404_x_at) / Fold change /veh ID3 (11757404_x_at) / RFU PLEKHG5 (11737974_s_at) / Fold change /veh PLEKHG5 (11737974_s_at) / RFU LRRC4B (11730491_at) / Fold change /veh LRRC4B (11730491_at) / RFU GIMAP4 (11747438_a_at) / Fold change /veh GIMAP4 (11747438_a_at) / RFU KRT8 (11758183_x_at) / Fold change /veh KRT8 (11758183_x_at) / RFU CNN1 (11734310_a_at) / Fold change /veh CNN1 (11734310_a_at) / RFU VPS37D (11726825_at) / Fold change /veh VPS37D (11726825_at) / RFU C10orf10 (11716522_x_at) / Fold change /veh C10orf10 (11716522_x_at) / RFU KIR2DL2 /// KIR2DL4 /// KIR2DL5A /// KIR2DL5B /// KIR2DS1 /// KIR2DS2 /// KIR2DS3 /// KIR2DS4 /// KIR3DL3 /// KIR3DL3 /// KIR3DS1 (11738374_at) / Fold change /veh KIR2DL2 /// KIR2DL4 /// KIR2DL5A /// KIR2DL5B /// KIR2DS1 /// KIR2DS2 /// KIR2DS3 /// KIR2DS4 /// KIR3DL3 /// KIR3DL3 /// KIR3DS1 (11738374_at) / RFU C1QL1 (11718748_at) / Fold change /veh C1QL1 (11718748_at) / RFU TMPRSS4 (11747572_a_at) / Fold change /veh TMPRSS4 (11747572_a_at) / RFU HAMP (11756126_x_at) / Fold change /veh HAMP (11756126_x_at) / RFU RNFT2 (11725882_a_at) / Fold change /veh RNFT2 (11725882_a_at) / RFU NR4A2 (11747474_a_at) / Fold change /veh NR4A2 (11747474_a_at) / RFU ABCC12 (11746883_a_at) / Fold change /veh ABCC12 (11746883_a_at) / RFU TMEM136 (11760407_x_at) / Fold change /veh TMEM136 (11760407_x_at) / RFU CLDN22 /// WWC2 (11732394_at) / Fold change /veh CLDN22 /// WWC2 (11732394_at) / RFU HLA-DPB1 (11760878_x_at) / Fold change /veh HLA-DPB1 (11760878_x_at) / RFU SPINT1 (11716480_a_at) / Fold change /veh SPINT1 (11716480_a_at) / RFU GAP43 (11754022_s_at) / Fold change /veh GAP43 (11754022_s_at) / RFU A4GNT (11735810_at) / Fold change /veh A4GNT (11735810_at) / RFU PRB3 (11715151_x_at) / Fold change /veh PRB3 (11715151_x_at) / RFU TUBB4B (11761932_at) / Fold change /veh TUBB4B (11761932_at) / RFU CAPN14 (11732068_a_at) / Fold change /veh CAPN14 (11732068_a_at) / RFU TMCC2 (11721928_a_at) / Fold change /veh TMCC2 (11721928_a_at) / RFU IRGQ (11745062_a_at) / Fold change /veh IRGQ (11745062_a_at) / RFU FAM174B (11720279_a_at) / Fold change /veh FAM174B (11720279_a_at) / RFU TMPRSS4 (11748680_a_at) / Fold change /veh TMPRSS4 (11748680_a_at) / RFU FAM212B (11763350_a_at) / Fold change /veh FAM212B (11763350_a_at) / RFU PLEKHG5 (11743358_a_at) / Fold change /veh PLEKHG5 (11743358_a_at) / RFU ZSCAN30 (11745921_a_at) / Fold change /veh ZSCAN30 (11745921_a_at) / RFU CMKLR1 (11741424_a_at) / Fold change /veh CMKLR1 (11741424_a_at) / RFU LOC101060620 /// MAPK8IP1 (11723275_at) / Fold change /veh LOC101060620 /// MAPK8IP1 (11723275_at) / RFU SPTSSB (11747773_x_at) / Fold change /veh SPTSSB (11747773_x_at) / RFU PRSS12 (11739890_at) / Fold change /veh PRSS12 (11739890_at) / RFU BIN1 (11741810_x_at) / Fold change /veh BIN1 (11741810_x_at) / RFU WNT11 (11732464_a_at) / Fold change /veh WNT11 (11732464_a_at) / RFU C10orf10 (11716521_a_at) / Fold change /veh C10orf10 (11716521_a_at) / RFU C5orf56 (11738089_at) / Fold change /veh C5orf56 (11738089_at) / RFU CYB561 (11721691_x_at) / Fold change /veh CYB561 (11721691_x_at) / RFU ANKRD19P (11752326_a_at) / Fold change /veh ANKRD19P (11752326_a_at) / RFU OR2T12 /// OR2T33 /// OR2T8 (11738714_s_at) / Fold change /veh OR2T12 /// OR2T33 /// OR2T8 (11738714_s_at) / RFU VCAN (11748164_a_at) / Fold change /veh VCAN (11748164_a_at) / RFU JSRP1 (11732532_at) / Fold change /veh JSRP1 (11732532_at) / RFU KRTAP10-11 (11738290_x_at) / Fold change /veh KRTAP10-11 (11738290_x_at) / RFU MYO3A (11730013_a_at) / Fold change /veh MYO3A (11730013_a_at) / RFU EBF3 (11725865_a_at) / Fold change /veh EBF3 (11725865_a_at) / RFU CAMK2N1 (11719241_x_at) / Fold change /veh CAMK2N1 (11719241_x_at) / RFU C5orf56 (11738088_a_at) / Fold change /veh C5orf56 (11738088_a_at) / RFU OLFML3 (11715873_a_at) / Fold change /veh OLFML3 (11715873_a_at) / RFU LOC100653217 /// NTM (11731650_a_at) / Fold change /veh LOC100653217 /// NTM (11731650_a_at) / RFU MAPK11 (11762145_a_at) / Fold change /veh MAPK11 (11762145_a_at) / RFU FIZ1 (11724087_x_at) / Fold change /veh FIZ1 (11724087_x_at) / RFU OASL (11726364_x_at) / Fold change /veh OASL (11726364_x_at) / RFU SOX15 (11748057_x_at) / Fold change /veh SOX15 (11748057_x_at) / RFU CD79A (11719716_a_at) / Fold change /veh CD79A (11719716_a_at) / RFU HIST1H1D (11736915_at) / Fold change /veh HIST1H1D (11736915_at) / RFU CASKIN2 (11723855_a_at) / Fold change /veh CASKIN2 (11723855_a_at) / RFU LOC730098 (11760151_x_at) / Fold change /veh LOC730098 (11760151_x_at) / RFU OR4N2 (11742367_at) / Fold change /veh OR4N2 (11742367_at) / RFU PRRT2 (11749266_a_at) / Fold change /veh PRRT2 (11749266_a_at) / RFU SNX32 (11753110_a_at) / Fold change /veh SNX32 (11753110_a_at) / RFU CDHR5 (11726645_a_at) / Fold change /veh CDHR5 (11726645_a_at) / RFU RCAN1 (11760418_a_at) / Fold change /veh RCAN1 (11760418_a_at) / RFU FAM167A (11723789_a_at) / Fold change /veh FAM167A (11723789_a_at) / RFU FAM26E (11764081_at) / Fold change /veh FAM26E (11764081_at) / RFU ISYNA1 (11749810_s_at) / Fold change /veh ISYNA1 (11749810_s_at) / RFU ACY1 (11761880_at) / Fold change /veh ACY1 (11761880_at) / RFU 11764098_at / Fold change /veh 11764098_at / RFU SAMD14 (11745864_x_at) / Fold change /veh SAMD14 (11745864_x_at) / RFU NPB (11741838_a_at) / Fold change /veh NPB (11741838_a_at) / RFU TMPRSS6 (11731388_a_at) / Fold change /veh TMPRSS6 (11731388_a_at) / RFU KRTAP10-2 (11738614_at) / Fold change /veh KRTAP10-2 (11738614_at) / RFU ARHGAP8 /// PRR5-ARHGAP8 (11727945_x_at) / Fold change /veh ARHGAP8 /// PRR5-ARHGAP8 (11727945_x_at) / RFU KRTAP5-7 /// NADSYN1 (11734609_at) / Fold change /veh KRTAP5-7 /// NADSYN1 (11734609_at) / RFU RASL12 (11751679_a_at) / Fold change /veh RASL12 (11751679_a_at) / RFU CDKN2B (11736163_a_at) / Fold change /veh CDKN2B (11736163_a_at) / RFU PRF1 (11729649_at) / Fold change /veh PRF1 (11729649_at) / RFU, ZNF638 /// ZNF638-IT1 / Fold change vs veh, ZNF638 /// ZNF638-IT1 / RFU, PANK3 / Fold change vs veh, PANK3 / RFU, SH3YL1 / Fold change vs veh, SH3YL1 / RFU, ZEB2 / Fold change vs veh, ZEB2 / RFU, NRIP1 / Fold change vs veh, NRIP1 / RFU, PTTG1IP / Fold change vs veh, PTTG1IP / RFU, CAPN2 / Fold change vs veh, CAPN2 / RFU, MED14 / Fold change vs veh, MED14 / RFU, SNORA58 / Fold change vs veh, SNORA58 / RFU, C1orf63 / Fold change vs veh, C1orf63 / RFU, LRRFIP1 / Fold change vs veh, LRRFIP1 / RFU, NDUFAF7 / Fold change vs veh, NDUFAF7 / RFU, SLC12A2 / Fold change vs veh, SLC12A2 / RFU, IBTK / Fold change vs veh, IBTK / RFU, ESF1 / Fold change vs veh, ESF1 / Fold change vs veh, TMEM50B / RFU, TAOK1 / Fold change vs veh, TAOK1 / RFU, ACBD3 / Fold change vs veh, ACBD3 / RFU, TMA16 / Fold change vs veh, TMA16 / RFU, RWDD3 / Fold change vs veh, RWDD3 / RFU, BCAT1 / Fold change vs veh, BCAT1 / RFU, EDEM3 / Fold change vs veh, EDEM3 / RFU, TMEM33 / Fold change vs veh, TMEM33 / RFU, WDR75 / Fold change vs veh, WDR75 / RFU, AHCTF1 / Fold change vs veh, AHCTF1 / RFU, TFRC / Fold change vs veh, TFRC / RFU, ZDHHC17 / Fold change vs veh, ZDHHC17 / RFU, NOM1 / Fold change vs veh, NOM1 / RFU, ARL8B / Fold change vs veh, ARL8B / RFU, ZBTB11 / Fold change vs veh, ZBTB11 / RFU, TAMM41 / Fold change vs veh, TAMM41 / RFU, KIAA1704 /// LOC100996395 / Fold change vs veh, KIAA1704 /// LOC100996395 / RFU, ING1 / Fold change vs veh, ING1 / RFU, TRMT61B / Fold change vs veh, TRMT61B / RFU, FUBP3 / Fold change vs veh, FUBP3 / RFU, TP53 / Fold change vs veh, TP53 / RFU, TNKS2 / Fold change vs veh, TNKS2 / RFU, ZFP14 / Fold change vs veh, ZFP14 / RFU, ACTR2 / Fold change vs veh, ACTR2 / RFU, PPP3R1 / Fold change vs veh, PPP3R1 / RFU, PIK3R1 / Fold change vs veh, PIK3R1 / RFU, HNRNPA1 / Fold change vs veh, HNRNPA1 / RFU, RNF170 / Fold change vs veh, RNF170 / RFU, ZNF28 / Fold change vs veh, ZNF28 / RFU, RNGTT / Fold change vs veh, RNGTT / RFU, OGT / Fold change vs veh, OGT / RFU, BRD1 / Fold change vs veh, BRD1 / RFU, MARS / Fold change vs veh, MARS / RFU, ZNF655 / Fold change vs veh, ZNF655 / RFU, FAHD1 / Fold change vs veh, FAHD1 / RFU, BDP1 / Fold change vs veh, BDP1 / RFU, LRRCC1 / Fold change vs veh, LRRCC1 / RFU, ARID1A / Fold change vs veh, ARID1A / RFU, ZNF146 / Fold change vs veh, ZNF146 / RFU, ZNF330 / Fold change vs veh, ZNF330 / RFU, GPN3 / Fold change vs veh, GPN3 / RFU, C9orf123 / Fold change vs veh, C9orf123 / RFU, N4BP2L2 / Fold change vs veh, N4BP2L2 / RFU, ARFIP1 / Fold change vs veh, ARFIP1 / RFU, FAM179B / Fold change vs veh, FAM179B / RFU, BCL10 / Fold change vs veh, BCL10 / RFU, UHRF1BP1L / Fold change vs veh, UHRF1BP1L / RFU, BET1 / Fold change vs veh, BET1 / RFU, CNOT2 / Fold change vs veh, CNOT2 / RFU, ZNF268 / Fold change vs veh, ZNF268 / Fold change vs veh, ZNF507 / RFU, DGCR2 / Fold change vs veh, DGCR2 / RFU, WDSUB1 / Fold change vs veh, WDSUB1 / Fold change vs veh, HSP90B1 /// MIR3652 / RFU, ADSS / Fold change vs veh, ADSS / RFU, GK / Fold change vs veh, GK / RFU, ZNF148 / Fold change vs veh, ZNF148 / RFU, TAF9 / Fold change vs veh, TAF9 / RFU, SLC1A5 / Fold change vs veh, SLC1A5 / RFU, SLMO2 / Fold change vs veh, SLMO2 / RFU, ABCC4 / Fold change vs veh, ABCC4 / RFU, LOC101060439 /// RAP1B / Fold change vs veh, LOC101060439 /// RAP1B / RFU, RFX7 / Fold change vs veh, RFX7 / RFU, GTPBP10 / Fold change vs veh, GTPBP10 / RFU, CNEP1R1 / Fold change vs veh, CNEP1R1 / RFU, BIVM-ERCC5 /// ERCC5 / Fold change vs veh, BIVM-ERCC5 /// ERCC5 / RFU, ILF3 / Fold change vs veh, ILF3 / RFU 11762660_at / Fold change /veh 11762660_at / RFU VCAN (11757783_s_at) / Fold change /veh VCAN (11757783_s_at) / RFU DDX43 (11728927_at) / Fold change /veh DDX43 (11728927_at) / RFU KRT8 (11758188_x_at) / Fold change /veh KRT8 (11758188_x_at) / RFU NKD1 (11759106_at) / Fold change /veh NKD1 (11759106_at) / RFU SRD5A1 (11742802_a_at) / Fold change /veh SRD5A1 (11742802_a_at) / RFU TPSAB1 /// TPSB2 (11721975_s_at) / Fold change /veh TPSAB1 /// TPSB2 (11721975_s_at) / RFU GSTM3 (11746129_a_at) / Fold change /veh GSTM3 (11746129_a_at) / RFU IL23R (11737362_x_at) / Fold change /veh IL23R (11737362_x_at) / RFU TMEM51 (11727254_a_at) / Fold change /veh TMEM51 (11727254_a_at) / RFU PIWIL2 (11732686_x_at) / Fold change /veh PIWIL2 (11732686_x_at) / RFU ORM1 (11744905_x_at) / Fold change /veh ORM1 (11744905_x_at) / RFU CCDC152 (11743942_at) / Fold change /veh CCDC152 (11743942_at) / RFU ECM1 (11717891_a_at) / Fold change /veh ECM1 (11717891_a_at) / RFU IL23R (11748794_a_at) / Fold change /veh IL23R (11748794_a_at) / RFU TNFAIP8L3 (11732012_x_at) / Fold change /veh TNFAIP8L3 (11732012_x_at) / RFU MBOAT4 (11741988_at) / Fold change /veh MBOAT4 (11741988_at) / RFU 11764193_at / Fold change /veh 11764193_at / RFU TMEM53 (11763286_at) / Fold change /veh TMEM53 (11763286_at) / RFU MAGEB2 (11727129_at) / Fold change /veh MAGEB2 (11727129_at) / RFU TMEM200A (11744735_a_at) / Fold change /veh TMEM200A (11744735_a_at) / RFU CCDC152 (11751479_a_at) / Fold change /veh CCDC152 (11751479_a_at) / RFU FAM211A (11726209_a_at) / Fold change /veh FAM211A (11726209_a_at) / RFU RGS16 (11746705_a_at) / Fold change /veh RGS16 (11746705_a_at) / RFU VCAN (11755009_s_at) / Fold change /veh VCAN (11755009_s_at) / RFU RHOB (11743442_s_at) / Fold change /veh RHOB (11743442_s_at) / RFU RGS16 (11720943_a_at) / Fold change /veh RGS16 (11720943_a_at) / RFU RGS16 (11720944_at) / Fold change /veh RGS16 (11720944_at) / RFU, VPS4B / Fold change vs veh, VPS4B / RFU, CREB1 / Fold change vs veh, CREB1 / RFU, DNAJC13 / Fold change vs veh, DNAJC13 / RFU, GNAQ / Fold change vs veh, GNAQ / RFU, CDK5R1 / Fold change vs veh, CDK5R1 / RFU, ZRANB3 / Fold change vs veh, ZRANB3 / RFU, CUL4A / Fold change vs veh, CUL4A / RFU, CCNY / Fold change vs veh, CCNY / RFU, UFL1 / Fold change vs veh, UFL1 / RFU, COG3 / Fold change vs veh, COG3 / RFU, DIAPH2 / Fold change vs veh, DIAPH2 / RFU, SKA2 / Fold change vs veh, SKA2 / RFU, AFF3 / Fold change vs veh, AFF3 / RFU, LMF1 / Fold change vs veh, LMF1 / RFU, IPO11 / Fold change vs veh, IPO11 / RFU, DFFB / Fold change vs veh, DFFB / RFU, FOXP1 / Fold change vs veh, FOXP1 / RFU, CARD8 / Fold change vs veh, CARD8 / RFU, STRN3 / Fold change vs veh, STRN3 / RFU, ADK / Fold change vs veh, ADK / RFU, RASSF2 / Fold change vs veh, RASSF2 / RFU, WIPF1 / Fold change vs veh, WIPF1 / RFU, LARP1B / Fold change vs veh, LARP1B / RFU, RASA1 / Fold change vs veh, RASA1 / RFU, RB1 / Fold change vs veh, RB1 / RFU, PPFIA1 / Fold change vs veh, PPFIA1 / RFU, MAT2A / Fold change vs veh, MAT2A / RFU, CCT5 / Fold change vs veh, CCT5 / RFU, WDR92 / Fold change vs veh, WDR92 / RFU, CUX1 / Fold change vs veh, CUX1 / RFU, TTC7A / Fold change vs veh, TTC7A / RFU, TMEM135 / Fold change vs veh, TMEM135 / RFU, DEPTOR / Fold change vs veh, DEPTOR / RFU, CPM / Fold change vs veh, CPM / RFU, DNAJB6 / Fold change vs veh, DNAJB6 / RFU, CACNA2D3 / Fold change vs veh, CACNA2D3 / RFU, DTX4 / Fold change vs veh, DTX4 / RFU, TFCP2 / Fold change vs veh, TFCP2 / RFU, GMCL1 /// GMCL1P1 / Fold change vs veh, GMCL1 /// GMCL1P1 / RFU, AEBP2 / Fold change vs veh, AEBP2 / RFU, SNHG1 /// SNORD22 /// SNORD25 /// SNORD26 /// SNORD27 /// SNORD28 /// SNORD29 /// SNORD31 / Fold change vs veh, SNHG1 /// SNORD22 /// SNORD25 /// SNORD26 /// SNORD27 /// SNORD28 /// SNORD29 /// SNORD31 / Fold change (Aza/veh), C12orf56 (ProbeSet 11735607_a_at) / Fold change (ACY-1035/veh), C12orf56 (ProbeSet 11735607_a_at) / Fold change (Aza/veh), FGFR1OP (ProbeSet 11751329_s_at) / Fold change (ACY-1035/veh), FGFR1OP (ProbeSet 11751329_s_at) / Fold change (Aza/veh), VPS36 (ProbeSet 11739960_a_at) / Fold change (ACY-1035/veh), VPS36 (ProbeSet 11739960_a_at) / RFU SYPL1 (11715823_x_at) / Fold change /veh SYPL1 (11715823_x_at) / RFU IGFBP7 (11715501_s_at) / Fold change /veh IGFBP7 (11715501_s_at) / RFU REEP3 (11722064_at) / Fold change /veh REEP3 (11722064_at) / RFU IGLL1 (11728026_x_at) / Fold change /veh IGLL1 (11728026_x_at): dose or concentration left out as unconfirmed
Settings: MV-4-11 cells, 48 hours

In the case of `Nc1ncn([C@@H]2O[C@H](CO)[C@@H](O)[C@H]2O)c(=O)n1` [azacitidine], the “Fold change /veh CDHR5 (11726645_a_at)” value is reported as 1.19.
